The values below are quoted from earlier work in patent US20180263953A1, “Sustained Release Cannabinoid Formulations” (CannTab Therapeutics, Limited, priority 2016, published 2018).

Some results are limits rather than exact numbers.

For data set [1] the following is noted: low solubility and unknown permeability; NICHD/FDA Oral Formulations Platform Report 1.
For data set [2] the following is noted: after administration.

Turning to `CCCCCc1cc(O)c2c(c1)OC(C)(C)[C@@H]1CCC(C)=C[C@@H]21` [Dronabinol, (−)-trans-Δ^9-tetrahydrocannabinol], in data set [1], the BCS class entry is reported as “class 2 or class 4”. Moreover, the “duration of appetite stimulant effect” value in data set [2] was not below 24 h.
